Tests used:
Bacillus subtilis = experiment: Antibacterial activity against Bacillus subtilis at 40 ug; type: functional; conditions: read-out: IZ
P388 = experiment: Cytotoxicity against mouse P388 cells; type: functional, cell-based

| SMILES | zone of inhibition at 40 µg/disc (Bacillus subtilis) [mm] | IC50 (P388) [µM] |
| --- | --- | --- |
| COC(=O)/C(=C1/OC(=O)C(c2ccc(OC)cc2)=C1O)c1ccc(OC)c(Cl)c1 | 7 |  |
| COC(=O)/C(=C1/OC(O)=C(c2ccc(OC)cc2)C1=O)c1ccc(OC)cc1 | 8 |  |
| COC(=O)/C(=C1/OC(=O)C(c2ccc(OC)cc2)=C1O)c1cc(Cl)c(OC)c(Cl)c1 | 4 | 20.6 |
